From article PMC6420026, “TLR9-mediated dendritic cell activation uncovers mammalian ganglioside species with specific ceramide backbones that activate invariant natural killer T cells” (PLoS Biology, 2019)
Where two headings read alike, the source gives them in different places.

Molecular target: T1, mouse CD1d (mCD1d) (Mus musculus, UniProt P11609)
T1 construct: gene Cd1d1
T1 sequence (P11609 22-305 limits assumed): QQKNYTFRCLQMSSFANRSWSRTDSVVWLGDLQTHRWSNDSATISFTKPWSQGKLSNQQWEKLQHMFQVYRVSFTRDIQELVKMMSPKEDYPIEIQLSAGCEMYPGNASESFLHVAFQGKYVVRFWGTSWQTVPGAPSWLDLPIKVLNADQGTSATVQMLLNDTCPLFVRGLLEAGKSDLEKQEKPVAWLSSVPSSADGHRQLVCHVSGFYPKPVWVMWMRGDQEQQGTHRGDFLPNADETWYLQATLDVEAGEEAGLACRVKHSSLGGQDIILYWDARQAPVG
T1 sequence (P01887 21-119 partner): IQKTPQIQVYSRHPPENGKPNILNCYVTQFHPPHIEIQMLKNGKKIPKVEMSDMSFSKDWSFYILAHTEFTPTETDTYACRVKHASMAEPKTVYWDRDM
Assay: microscale thermophoresis
Type: binding

Kd (NT-647-labelled mCD1d 125 nM, PBS 25 mM, 0.05% Tyloxapol, up to 5% DMSO, 1:1 fit, labelled protein) [µM] | Kd [µM] | Structure (SMILES)
69.1 ± 1.5 |  | CCCCCCCC/C=C\CCCCCCCCCCCCCC(=O)N[C@@H](CO[C@@H]1O[C@H](CO)[C@@H](O[C@@H]2O[C@H](CO)[C@H](O)[C@H](O[C@]3(C(=O)O)C[C@H](O)[C@@H](NC(C)=O)[C@H]([C@H](O)[C@@H](CO)O[C@]4(C(=O)O)C[C@H](O)[C@@H](NC(C)=O)[C@H]([C@H](O)[C@H](O)CO)O4)O3)[C@H]2O)[C@H](O)[C@H]1O)[C@H](O)/C=C/CCCCCCCCCCCCC [C24:1 GD3]
 | 102 ± 2.3 | CCCCCCCC/C=C\CCCCCCCCCCCCCC(=O)N[C@@H](CO[C@@H]1O[C@H](CO)[C@@H](O[C@@H]2O[C@H](CO)[C@H](O)[C@H](O[C@]3(C(=O)O)C[C@H](O)[C@@H](NC(C)=O)[C@H]([C@H](O)[C@H](O)CO)O3)[C@H]2O)[C@H](O)[C@H]1O)[C@H](O)/C=C/CCCCCCCCCCCCC [C24:1 GM3]
 | 2540 | CCCCCCCC/C=C\CCCCCCCCCCCCCC(=O)N[C@@H](CO[C@@H]1O[C@H](CO)[C@@H](O)[C@H](O)[C@H]1O)[C@H](O)/C=C/CCCCCCCCCCCCC [C24:1 β-GlcCer]
